# Assay results published in ChEMBL document CHEMBL4229572, “VU6007477, a Novel M1 PAM Based on a Pyrrolo[2,3-b]pyridine Carboxamide Core Devoid of Cholinergic Adverse Events” (ACS Med Chem Lett, 2018).
# Changes are numbered by the printed parent chain. Active and inactive are the calls of the source. The calls are words filed in the database; no cut-off is given here.
# Columns and labels:
# [1] = biological target: T1, Muscarinic acetylcholine receptor M1 (Rattus norvegicus) (UniProt P08482); experiment: (§1) Positive allosteric modulation of rat M1 receptor expressed in CHO cells assessed as increase in acetylcholine-induced calcium mobilization pretreated for 2.5 mins followed by acetylcholine addition and measured after 1 min by Fluo-4-AM dye based assay; assay type: functional, cell-based
# T1 sequence (whole entry): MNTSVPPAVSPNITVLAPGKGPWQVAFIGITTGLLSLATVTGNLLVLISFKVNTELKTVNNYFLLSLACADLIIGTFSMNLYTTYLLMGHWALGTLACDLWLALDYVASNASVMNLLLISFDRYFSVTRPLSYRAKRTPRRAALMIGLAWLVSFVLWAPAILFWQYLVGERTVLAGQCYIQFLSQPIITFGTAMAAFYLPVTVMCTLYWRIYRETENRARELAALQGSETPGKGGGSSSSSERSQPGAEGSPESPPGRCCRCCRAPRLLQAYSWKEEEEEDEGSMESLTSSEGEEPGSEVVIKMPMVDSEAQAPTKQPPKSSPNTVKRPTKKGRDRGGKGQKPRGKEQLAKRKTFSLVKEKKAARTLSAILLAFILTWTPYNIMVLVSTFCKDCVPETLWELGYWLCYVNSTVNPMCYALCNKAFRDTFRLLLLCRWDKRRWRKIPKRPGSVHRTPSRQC
# [2] = biological target: T2, Muscarinic acetylcholine receptor M1 (Rattus norvegicus, UniProt P08482); experiment: as §1; assay type: functional, cell-based
# T2 sequence (P08482 whole entry): T1 sequence (whole entry)
# [3] = biological target: T1, Muscarinic acetylcholine receptor M1 (Rattus norvegicus); experiment: (§2) Agonist activity at rat M1 receptor expressed in CHO cells assessed as increase in calcium mobilization measured after 2.5 mins by Fluo-4-AM dye based assay; assay type: functional, cell-based
# [4] = biological target: T2, Muscarinic acetylcholine receptor M1; experiment: as §2; assay type: functional, cell-based
# [5] = biological target: T3, Muscarinic acetylcholine receptor M1 (Homo sapiens) (UniProt P11229); experiment: (§3) Positive allosteric modulation of human M1 receptor expressed in CHO cells assessed as increase in acetylcholine-induced calcium mobilization pretreated for 2.5 mins followed by acetylcholine addition and measured after 1 min by Fluo-4-AM dye based assay; assay type: functional, cell-based
# T3 sequence (whole entry): T1 sequence (whole entry) with V5A, S254T, S309P, K320R, G337A, V413I
# [6] = biological target: T4, Muscarinic acetylcholine receptor M1 (Homo sapiens, UniProt P11229); experiment: as §3; assay type: functional, cell-based
# T4 sequence (P11229 whole entry): T1 sequence (whole entry) with V5A, S254T, S309P, K320R, G337A, V413I
# [7] = biological target: T4, Muscarinic acetylcholine receptor M1; experiment: Agonist activity at human M1 receptor expressed in CHO cells assessed as increase in calcium mobilization measured after 2.5 mins by Fluo-4-AM dye based assay; assay type: functional, cell-based
# [8] = Protein binding in rat plasma assessed as unbound fraction at 5 uL measured after 4 hrs by LC-MS/MS based equilibrium dialysis method; assay type: ADME, cell-free
# [9] = Protein binding in human plasma assessed as unbound fraction at 5 uL measured after 4 hrs by LC-MS/MS based equilibrium dialysis method; assay type: ADME, cell-free
# [10] = Protein binding in rat brain assessed as unbound fraction; assay type: ADME, tissue-based
# [11] = Total brain to plasma partition coefficient, Kp in cannulated Sprague-Dawley rat at 0.2 mg/kg, iv administered via jugular vein as cassette dose measured after 0.25 hrs by LC-MS/MS analysis; assay type: ADME, organism-based; settings: for Kp at 0.25 h: Sprague-Dawley, brain and plasma; for Kp: brain, 0.25 h, BLD = below limit of detection
# [12] = Ratio of unbound brain to plasma concentration in cannulated Sprague-Dawley rat at 0.2 mg/kg, iv administered via jugular vein as cassette dose measured after 0.25 hrs by LC-MS/MS analysis; assay type: ADME, organism-based; settings: for Kp uu at 0.25 h: Sprague-Dawley, brain and plasma, read-out: K(p,uu,brain); for K(p,uu,brain): 0.25 h, BLD = below limit of detection
# [13] = Total brain to plasma partition coefficient, Kp in C57BL/6J mouse at 100 mg/kg, ip after 1 hr by LC-MS/MS analysis; assay type: ADME, organism-based; settings: brain and plasma
# [14] = Ratio of unbound brain to plasma concentration in C57BL/6J mouse at 100 mg/kg, ip after 1 hr by LC-MS/MS analysis; assay type: ADME, organism-based; settings: brain and plasma, read-out: K(p,uu,brain)
# Mus musculus = experiment: Cholinergic toxicity in C57BL/6J mouse assessed as induction of seizure activity at 100 mg/kg, ip measured within 30 mins; assay type: organism-based; settings: in vivo, 0.5 h
%max [1] [%],EC50 ([2]; read-out: EC50) [nM],%max [3] [%],EC50 ([4]; read-out: EC50) [nM],EC50 ([4]; read-out: pEC50 (converted)) [nM],Compound,further results
87,40,65,2240,,Cn1ccc(-c2ccc(Cc3cc(C(=O)N[C@@H]4CCOC[C@H]4O)nc4c3ccn4C)cc2)n1,"%max [5]: 83%; EC50 [6]: 60 nM; EC50 [7]: 60.3 nM; fraction unbound at 4 h, 5 uL [8]: 0.03; fraction unbound at 4 h, 5 uL [9]: 0.02; fraction unbound [10]: 0.01; Kp at 0.25 h [11]: 0.11; Kp uu at 0.25 h [12]: 0.05; Kp at 1 h [13]: 0.09; Kp uu at 1 h [14]: 0.04; Activity (Mus musculus): Toxic"
,,,,,Cn1cc(-c2ccc(Cn3cc(C(=O)N[C@H]4CCCC[C@@H]4O)c4c(F)cc(F)cc43)cn2)cn1,Activity [1]: inactive
84,490,,,> 10000,Cn1ccc(-c2ccc(Cc3cc(C(=O)NC[C@@H]4CCCO4)nc4c3ccn4C)cn2)n1,"EC50 ([4]; cho, read-out: EC50): > 10000 nM"
94,550,,,> 10000,Cn1ccc(-c2ccc(Cc3cc(C(=O)NC4CCOC(C)(C)C4)nc4c3ccn4C)cn2)n1 (centres undefined),"EC50 ([4]; cho, read-out: EC50): > 10000 nM"
,,,,,O=C(N[C@H]1CCCC[C@@H]1O)C1CN(Cc2ccc(-n3cccn3)cc2)c2ccccc2O1 (some centres undefined),Activity [1]: inactive
88,760,,,> 10000,Cc1nc(-c2ccc(Cc3cc(C(=O)NC4CCOCC4)nc4c3ccn4C)cc2)co1,"EC50 ([4]; cho, read-out: EC50): > 10000 nM"
89,560,,> 10000,,Cn1ccc(-c2ccc(Cc3cc(C(=O)NC4CCOCC4)nc4c3ccn4C)cc2)n1,"%max [5]: 87%; EC50 [6]: 660 nM; EC50 [7]: 661 nM; fraction unbound at 4 h, 5 uL [8]: 0.04; fraction unbound at 4 h, 5 uL [9]: 0.02; fraction unbound [10]: 0.01; Kp [11]: Bld; K(p,uu,brain) [12]: Bld"
86,760,,> 30000,> 31600,Cn1ccc2c(Cc3ccc(-c4cscn4)cc3)cc(C(=O)NC3CCOCC3)nc21,
90,100,41,5620,,Cn1ccc2c(Cc3ccc(-c4nccs4)cc3)cc(C(=O)N[C@@H]3CCOC[C@H]3O)nc21,"%max [5]: 80%; EC50 [6]: 90 nM; EC50 [7]: 89.1 nM; fraction unbound at 4 h, 5 uL [8]: 0.02; fraction unbound at 4 h, 5 uL [9]: 0.02; fraction unbound [10]: 0.01; Kp at 0.25 h [11]: 0.21; Kp uu at 0.25 h [12]: 0.13; Activity (Mus musculus): Toxic"
86,260,,,> 10000,Cn1ccc(-c2ccc(Cc3cc(C(=O)N[C@@H]4CCC[C@H]4O)nc4c3ccn4C)cn2)n1,"EC50 ([4]; cho, read-out: EC50): > 10000 nM"
87,90 to 100,53,2290,,Cn1ccc(-c2ccc(Cc3cc(C(=O)N[C@@H]4CCCC[C@H]4O)nc4c3ccn4C)cn2)n1,"EC50 ([2]; read-out: pEC50 (converted)): 95.5 nM; %max [5]: 79%; EC50 [6]: 120 nM; EC50 [7]: 123 nM; fraction unbound at 4 h, 5 uL [8]: 0.03; fraction unbound at 4 h, 5 uL [9]: 0.12; fraction unbound [10]: 0.04; Kp [11]: Bld; K(p,uu,brain) [12]: Bld; Kp at 1 h [13]: 0.28; Kp uu at 1 h [14]: 0.17; Activity (Mus musculus): Toxic"
91,604,,> 10000,,Cn1ccc(-c2ccc(Cc3cc(C(=O)NC4CC5(COC5)C4)nc4c3ccn4C)cc2)n1,
87,490,26,,> 10000,Cn1ccc2c(Cc3ccc(-n4cccn4)cc3)cc(C(=O)NC3CCOCC3)nc21,"EC50 ([4]; cho, read-out: EC50): > 10000 nM"
87,1580,,> 30000,> 31600,Cn1ccc(-c2ccc(Cc3cc(C(=O)NCC4CCOCC4)nc4c3ccn4C)cn2)n1,
89,570,,> 30000,> 31600,Cn1ccc(-c2ccc(Cc3cc(C(=O)NC4CC5(COC5)C4)nc4c3ccn4C)cn2)n1,
87,180,41,3240,,Cn1ccc(-c2ccc(Cc3cc(C(=O)N[C@@H]4CCCC[C@H]4O)nc4c3ccn4C)cc2)n1,%max [5]: 84%; EC50 [6]: 180 nM; EC50 [7]: 182 nM
78,1740,,> 30000,> 31600,Cn1ccc2c(Cc3ccc(-c4nccs4)cc3)cc(C(=O)NC3CCOCC3)nc21,
89,40,58,1210,,Cn1cc(-c2ccc(Cc3cc(C(=O)N[C@@H]4CCCC[C@H]4O)nc4c3ccn4C)cn2)cn1,"fraction unbound at 4 h, 5 uL [8]: 0.06; fraction unbound at 4 h, 5 uL [9]: 0.04; fraction unbound [10]: 0.07; Kp [11]: Bld; K(p,uu,brain) [12]: Bld; Kp at 1 h [13]: 0.03; Kp uu at 1 h [14]: 0.04; Activity (Mus musculus): Toxic"
90,760,34,,> 10000,Cn1ccc(-c2ccc(Cc3cc(C(=O)NC4CCOCC4)nc4c3ccn4C)cn2)n1,"EC50 ([4]; cho, read-out: EC50): > 10000 nM"
86,14,67,575,,Cn1ccc(-c2ccc(Cc3cc(C(=O)N[C@@H]4CCOC[C@H]4O)nc4c3ccn4C)cn2)n1,
91,360,,> 30000,> 31600,Cn1ccc2c(Cc3ccc(-c4nccs4)cc3)cc(C(=O)N[C@@H]3CCCC[C@H]3O)nc21,
